Values joined by “and” are separate entries in the source; they are usually repeats but may differ in a detail not shown here. Identical values can stand only once.
Tested on: HCV replicon
Format: cell-based

Compound	IC50
COc1ccc2c(C#N)c(-c3ccc(NC(=O)OCc4ccccc4)cc3)n(C3CCC3)c2c1 [Compound 1079]	< 0.5 µM
COc1ccc2c(c1)c(C#N)c(-c1ccc(NC(=O)OCC(C)(C)C)cc1)n2C1CCC1 [Compound 1233]	< 0.5 µM
COc1ccc2c(c1)c(C#N)c(-c1ccc(NC(=O)NC3CCCC3)cc1)n2C1CCC1 [Compound 1165]	0.5 to 2 µM
COc1ccc2c(C#N)c(-c3ccc(NC(=O)C4CC4)cc3)n(CC3CC3)c2c1 [Compound 983]	0.5 to 2 µM
CC(C)NC(=O)Nc1ccc(-c2c(C#N)c3ccc(OCc4cccnc4)cc3n2C2CCC2)cc1 [Compound 1212]	< 0.5 µM
CCOc1ccc2c(C#N)c(-c3ccc(NC(=O)OC(C)(C)C)cc3)n(C3CCC3)c2c1 [Compound 1072]	< 0.5 µM
C=CCOC(=O)Nc1ccc(-c2c(C#N)c3cc(OC)c(OC)cc3n2CC)cc1 [Compound 1111]	0.5 to 2 µM
CCCOC(=O)Nc1ccc(-c2c(C#N)c3ccc(OCCCN4CCOCC4)cc3n2CC)cc1 [Compound 1122]	< 0.5 µM
CCOc1ccc2c(c1)c(C#N)c(-c1ccc(NC(=O)OC(C)CC)cc1)n2C1CCC1 (stereo not drawn) [Compound 1323]	< 0.5 µM
CCOC(=O)Nc1ccc(-c2c(C#N)c3ccc(OCC)cc3n2C2CCCC2)cc1 [Compound 1127]	< 0.5 µM
CC(C)NC(=O)Nc1ccc(-c2c(C#N)c3ccc(OCCN(C)C)cc3n2C2CCC2)cc1 [Compound 1319]	< 0.5 µM
CCn1c(-c2ccc(NS(=O)(=O)C(C)C)cc2)c(C#N)c2ccc(OC(F)(F)F)cc21 [Compound 884]	< 0.5 µM
Cn1c(-c2ccc(N3CCCS3(=O)=O)cc2)c(C#N)c2ccc(OC(F)(F)F)cc21 [Compound 902]	0.5 to 2 µM
CCOc1ccc2c(C#N)c(-c3ccc(NC(=O)OCc4ccccc4)cc3)n(CC3CC3)c2c1 [Compound 1153]	< 0.5 µM
CC(C)OC(=O)Nc1ccc(-c2c(C#N)c3ccc(OCCCn4ccnc4)cc3n2C2CCC2)cc1 [Compound 1254]	< 0.5 µM
CCN1CCN(c2ccc(-c3c(C#N)c4ccc(OC)cc4n3CC)cc2)S1(=O)=O [Compound 1110]	0.5 to 2 µM
N#Cc1c(-c2ccc(NC(=O)NC3CCCC3)cc2)n(C2CCC2)c2cc3c(cc12)OCO3 [Compound 1305]	< 0.5 µM
CC(C)OC(=O)Nc1ccc(-c2c(C#N)c3ccc(OCCNC4CC4)cc3n2C2CCC2)cc1 [Compound 1279]	< 0.5 µM
CCn1c(-c2ccc(NS(=O)(=O)CC)cc2)c(C#N)c2ccc(C(=O)OC)cc21 [Compound 968]	< 0.5 µM and 0.5 to 2 µM
CCCCOC(=O)Nc1ccc(-c2c(C#N)c3ccc(O)cc3n2CC)cc1 [Compound 1086]	< 0.5 µM
CCn1c(-c2ccc(NC(=O)OCCF)cc2)c(C#N)c2ccc(OC(F)(F)F)cc21 [Compound 888]	0.5 to 2 µM
CCCNC(=O)Nc1ccc(-c2c(C#N)c3ccc(OCc4cccnc4)cc3n2CC)cc1 [Compound 1185]	< 0.5 µM
CCCn1c(-c2ccc(N3CCCS3(=O)=O)cc2)c(C#N)c2ccc(OC(F)(F)F)cc21 [Compound 904]	0.5 to 2 µM
CC(C)NC(=O)Nc1ccc(-c2c(C#N)c3ccc(-c4ccccn4)cc3n2C2CCC2)cc1 [Compound 2440]	< 0.5 µM
CCOc1ccc2c(C#N)c(-c3ccc(NC(=O)OCC4CCC4)cc3)n(C3CCC3)c2c1 [Compound 1158]	< 0.5 µM
CCOc1ccc2c(C#N)c(-c3ccc(NC(=O)OCc4ccccc4)cc3)n(CC3CC3)c2c1 [Compound 1155]	0.5 to 2 µM

Compound	IC50
CCn1c(-c2ccc(NC(=O)NC)cc2)c(C#N)c2ccc(OCCCN3CCOCC3)cc21 [Compound 1118]	0.5 to 2 µM
CCn1c(-c2ccc(N3CCOC3=O)cc2)c(C#N)c2ccc(OCCCn3cncn3)cc21 [Compound 1084]	0.5 to 2 µM
CCOc1ccc2c(c1)c(C#N)c(-c1ccc(NC(=O)OC(C)COC)cc1)n2C1CCC1 (stereo not drawn) [Compound 1299]	0.5 to 2 µM
CCOc1ccc2c(C#N)c(-c3ccc(NC(=O)NC(C)CC)cc3)n(C3CCC3)c2c1 (stereo not drawn) [Compound 1159]	< 0.5 µM
CCn1c(-c2ccc(NS(=O)(=O)C(C)C)cc2)c(C#N)c2ccc(OCCF)cc21 [Compound 912]	0.5 to 2 µM
N#Cc1c(-c2ccc(NC(=O)NC3CCC3)cc2)n(C2CCC2)c2cc(OCC3CCCO3)ccc12 (stereo not drawn) [Compound 1288]	< 0.5 µM
CCCS(=O)(=O)Nc1ccc(-c2c(C#N)c3ccc(OC(F)F)cc3n2C(C)C)cc1 [Compound 867]	0.5 to 2 µM
CCCOc1ccc2c(C#N)c(-c3ccc(NC(=O)NC(C)CC)cc3)n(C(C)C)c2c1 (stereo not drawn) [Compound 1324]	< 0.5 µM
C[C@@H](OC(=O)Nc1ccc(-c2c(C#N)c3ccc(Oc4ncccn4)cc3n2C2CC2)cc1F)C1CC1 [Compound 2413]	< 0.5 µM
CC(C)NC(=O)Nc1ccc(-c2c(C#N)c3ccc(OCCCN4CCOCC4)cc3n2C2CCC2)cc1 [Compound 1306]	0.5 to 2 µM
COc1ccc2c(C#N)c(-c3ccc(NC(=O)OC(C)C)cc3)n(C3CCC3)c2c1 [Compound 1076]	< 0.5 µM
CCNC(=O)Nc1ccc(-c2c(C#N)c3ccc(OCC)cc3n2C(C)C)cc1 [Compound 1098]	0.5 to 2 µM
CCCn1c(-c2ccc(NS(C)(=O)=O)cc2)c(C#N)c2ccc(OCc3ccccc3)cc21 [Compound 921]	0.5 to 2 µM
CCOc1ccc2c(C#N)c(-c3ccc(NC(=O)OC(C)COC)cc3)n(C3CCC3)c2c1 (stereo not drawn) [Compound 1313]	< 0.5 µM
CC(C)OC(=O)Nc1ccc(-c2c(C#N)c3ccc(OCCn4ccnc4)cc3n2C2CCC2)cc1 [Compound 1275]	< 0.5 µM
CCCOc1ccc2c(C#N)c(-c3ccc(NC(=O)OC4CCC4)cc3)n(C(C)C)c2c1 [Compound 1247]	< 0.5 µM
CCn1c(-c2ccc(NC(=O)C3CC3)cc2)c(C#N)c2ccc(OCCN(C)CCOC)cc21 [Compound 1091]	0.5 to 2 µM
CCOc1ccc2c(C#N)c(-c3ccc(NC(=O)OC(C)C)cc3)n(CC3CCC3)c2c1 [Compound 1169]	< 0.5 µM
CCCOC(=O)Nc1ccc(-c2c(C#N)c3ccc(OCC)cc3n2C2CCCC2)cc1 [Compound 1128]	< 0.5 µM
CCOc1ccc2c(C#N)c(-c3ccc(NS(=O)(=O)C4CC4)cc3)n(C3CCCC3)c2c1 [Compound 1141]	0.5 to 2 µM
CCOc1ccc2c(C#N)c(-c3ccc(NC(=O)OC4CCCC4)cc3)n(C3CCC3)c2c1 [Compound 1109]	< 0.5 µM
CCCCNC(=O)Nc1ccc(-c2c(C#N)c3ccc(OC(F)(F)F)cc3n2CC)cc1 [Compound 894]	0.5 to 2 µM
CCCS(=O)(=O)Nc1ccc(-c2c(C#N)c3ccc(OCC)cc3n2C2CCC2)cc1 [Compound 933]	0.5 to 2 µM
CCCCNC(=O)Nc1ccc(-c2c(C#N)c3cc(OC)ccc3n2CC)cc1 [Compound 1012]	0.5 to 2 µM
CCOC(=O)Nc1ccc(-c2c(C#N)c3ccc(OC(F)(F)F)cc3n2CC)cc1 [Compound 887]	0.5 to 2 µM
CCCOC(=O)Nc1ccc(-c2c(C#N)c3ccc(OC)cc3n2C2CCC2)cc1 [Compound 1074]	0.5 to 2 µM

Compound	IC50
CCN(c1ccc(-c2c(C#N)c3ccc(C(F)(F)F)cc3n2CC)cc1)S(C)(=O)=O [Compound 1003]	0.5 to 2 µM
COc1ccc2c(C#N)c(-c3ccc(NC(=O)NC(C)C)cc3)n(C3CCC3)c2c1 [Compound 1082]	0.5 to 2 µM
CC(C)OC(=O)Nc1ccc(-c2c(C#N)c3ccc(OCc4cccnc4)cc3n2C2CCC2)cc1 [Compound 1218]	< 0.5 µM
CCOC(=O)Nc1ccc(-c2c(C#N)c3cc(OCC)ccc3n2C2CCC2)cc1 [Compound 1193]	< 0.5 µM
CCOc1ccc2c(C#N)c(-c3ccc(NC(=O)NCCc4ccccc4)cc3)n(C(C)C)c2c1 [Compound 1102]	< 0.5 µM
CCCOc1ccc2c(C#N)c(-c3ccc(NC(=O)OC(C)C4CC4)cc3)n(C(C)C)c2c1 (stereo not drawn) [Compound 1244]	< 0.5 µM
CCCn1c(-c2ccc(NC(=O)OCCF)cc2)c(C#N)c2ccc(OCC)cc21 [Compound 1064]	0.5 to 2 µM
COc1ccc2c(C#N)c(-c3ccc(NC(=O)NC4CCCC4)cc3)n(C3CCC3)c2c1 [Compound 1106]	< 0.5 µM
CCOCCOC(=O)Nc1ccc(-c2c(C#N)c3ccc(OCC)cc3n2C2CCC2)cc1 [Compound 1250]	< 0.5 µM
COc1ccc2c(C#N)c(-c3ccc(N4CCCS4(=O)=O)cc3)n(C3CCC3)c2c1 [Compound 1104]	0.5 to 2 µM
CCCNC(=O)Nc1ccc(-c2c(C#N)c3ccc(OCC)cc3n2C2CCCC2)cc1 [Compound 1144]	< 0.5 µM
COc1ccc2c(C#N)c(-c3ccc(NS(=O)(=O)C(C)C)cc3)n(C3CCC3)c2c1 [Compound 1103]	0.5 to 2 µM
CCOc1ccc2c(C#N)c(-c3ccc(NC(=O)Oc4ccc(OC)cc4)cc3)n(C3CCC3)c2c1 [Compound 978]	0.5 to 2 µM
CCn1c(-c2ccc(NC(=O)NC(C)C)cc2)c(C#N)c2ccc(OCCF)cc21 [Compound 956]	< 0.5 µM
CCNC(=O)Nc1ccc(-c2c(C#N)c3ccc(OC(F)(F)F)cc3n2CC)cc1 [Compound 892]	0.5 to 2 µM
CCOc1ccc2c(C#N)c(-c3ccc(NC(=O)O[C@H](C)C4CC4)cc3)n(C3CCC3)c2c1 [Compound 2174]	< 0.5 µM
CCCS(=O)(=O)Nc1ccc(-c2c(C#N)c3ccc(OC(F)(F)F)cc3n2CC)cc1 [Compound 882]	< 0.5 µM
CCn1c(-c2ccc(NC(=O)C3CC3)cc2)c(C#N)c2ccc(OCCn3cccn3)cc21 [Compound 1184]	0.5 to 2 µM
CCn1c(-c2ccc(NC(=O)OC)cc2)c(C#N)c2ccc(OCCCN3CCOCC3)cc21 [Compound 1112]	0.5 to 2 µM
CCn1c(-c2ccc(N3CCCS3(=O)=O)cc2)c(C#N)c2ccc(N)cc21 [Compound 1050]	0.5 to 2 µM
CCn1c(-c2ccc(NS(=O)(=O)C3CC3)c(F)c2)c(C#N)c2ccc(OC)cc21 [Compound 873]	> 2 µM
CCCCn1c(-c2ccc(NC(=O)NCCc3ccccc3)cc2)c(C#N)c2ccc(OCC)cc21 [Compound 1019]	< 0.5 µM
C=CCOC(=O)Nc1ccc(-c2c(C#N)c3ccc(OC(F)F)cc3n2CC)cc1 [Compound 1135]	< 0.5 µM
CCn1c(-c2ccc(N3CCCS3(=O)=O)cc2)c(C#N)c2ccc(NC(=O)OC(C)(C)C)cc21 [Compound 1049]	< 0.5 µM
CCCn1c(-c2ccc(NC(=O)NCC)cc2)c(C#N)c2cc(OC)ccc21 [Compound 999]	0.5 to 2 µM
C=CCOC(=O)Nc1ccc(-c2c(C#N)c3ccc(OCC)cc3n2C2CCC2)cc1 [Compound 981]	< 0.5 µM

From patent US7973069B2 (PTC Therapeutics, Inc., priority 2004, dated 2011)
